Our source for the GI50 values is US20250388605A1, “HETEROBIFUNCTIONAL COMPOUNDS AND METHODS OF TREATING DISEASE” (Halda Therapeutics OpCo, Inc., priority 2022, published 2025).

For the assay, the system named is T-Rex 293 cell line SC cells lacking increased expression of progesterone receptor isoform B protein. In words: Cellular growth inhibition assay, T-Rex 293 SC cells not exposed to doxycycline (no increased progesterone receptor isoform B expression), CellTiter-Glo. The format is cell-based. The settings on record: T-Rex 293 SC cells without doxycycline (no increased PR isoform B), 72 hours. As for the experimental part:
The SC cells were seeded on poly-D-lysine coated, black clear-bottom 384-well plates at 2500/well, in 25 μL Phenol Red Free Dulbecco's Modified Eagle Medium (DMEM) supplemented with 10% w/w charcoal-dextran treated fetal bovine serum (FBS) and 1% w/w pen-strep, with or without 10 ng/mL doxycycline. Pen-Strep is a commercially available mixture of penicillin G and streptomycin, which is used in mammalian cell culture media to prevent bacterial contamination. Phenol Red Free Dulbecco's Modified Eagle Medium (DMEM) supplemented with 10% w/w charcoal-dextran treated fetal bovine serum (FBS) and 1% w/w pen-strep, with or without 10 ng/mL doxycycline is herein referred to as Treatment Medium. Following seeding of cells in the plates, the plates were spun at 300×g for 30 seconds, then equilibrated to room temperature for 30 minutes, and then deposited in a humidified tissue culture incubator maintained at 37° C. with 5% CO2.
At 24 hours after seeding of the cells, dilutions of test compound were prepared in DMSO and dissolved in Treatment Medium, to achieve a final DMSO concentration of 0.5% w/w, thereby providing the Test Compound Solution. A 25 μL aliquot of the Test Compound Solution was added to cells in the well plates. An equal volume of a solution containing DMSO and Treatment Medium was used as a negative control. Following treatment of cells with Test Compound Solution or said equal volume of a solution containing DMSO and Treatment Medium, the plates were spun at 300×g for 30 seconds, and then left in an incubator for 72 hours.
At the end of the treatment duration, cell viability was quantified with CellTiter-Glo 2.0 reagent (Promega Cat #G9243). For this purpose, plates were equilibrated to room temperature for 30 minutes, and then 25 μL of CellTiter-Glo 2.0 reagent was added to cells in the plate wells. Plates were then agitated on a shaker for two minutes at 500 rpm and subsequently incubated at room temperature for 10 minutes. Following incubation, the plates were spun at 3000×g for 30 seconds, then sealed with an optical adhesive cover, and luminescence readings were measured with an EnVision Plate Reader (Perkin Elmer).
Data was normalized using zero luminescence for baseline. A four-parameter non-linear regression curve fit was applied to dose-response data in GraphPad Prism data analysis software to determine the half-maximal growth inhibitory concentration (GI50) for each test compound.
(Cellular ATP, detected with luciferase, serves as a proxy for viable cell number.)
As a reminder, the GI50 is the concentration at which growth is held to half of that of the control. The low end stands for greater sensitivity of the cells, the high end for lower sensitivity of the cells. For the compound `CCS(=O)(=O)Nc1ccc(Oc2cccc(OCCN(C)c3ncc(C(=O)N[C@H]4C(C)(C)[C@H](Oc5ccc(C#N)c(Cl)c5)C4(C)C)cn3)c2)c(-c2cn(C)c(=O)c3[nH]ccc23)c1` [Compound I-1, N-((1r, 3r)-3-(3-chloro-4-cyanophenoxy)-2,2,4,4-tetramethylcyclobutyl)-2-((2-(3-(4-(ethylsulfonamido)-2-(6-methyl-7-oxo-6,7-dihydro-1H-pyrrolo[2,3-c]pyridin-4-yl)phenoxy)phenoxy)ethyl)(methyl)amino)pyrimidine-5-carboxamide], the GI50 is below 500 nM.

Compound `CCS(=O)(=O)Nc1ccc(Oc2cccc(OCCOCCOCCOCCOCCN(C)c3ncc(C(=O)N[C@H]4C(C)(C)[C@H](Oc5ccc(C#N)c(Cl)c5)C4(C)C)cn3)c2)c(-c2cn(C)c(=O)c3[nH]ccc23)c1` [Compound I-3] had a GI50 of 500 to 1500 nM.

The compound `CCS(=O)(=O)Nc1ccc(Oc2cccc(OCCOC3CCN(c4ncc(C(=O)N[C@H]5C(C)(C)[C@H](Oc6ccc(C#N)c(Cl)c6)C5(C)C)cn4)CC3)c2)c(-c2cn(C)c(=O)c3[nH]ccc23)c1` [Compound I-6] returned a GI50 below 500 nM.

`CCS(=O)(=O)Nc1ccc(Oc2cccc(OCCOCCOCCOC3CCN(c4ncc(C(=O)N[C@H]5C(C)(C)[C@H](Oc6ccc(C#N)c(Cl)c6)C5(C)C)cn4)CC3)c2)c(-c2cn(C)c(=O)c3[nH]ccc23)c1` [Compound I-7]: the GI50 was below 500 nM.

With `CCS(=O)(=O)Nc1ccc(Oc2cccc(COC3CCN(c4ncc(C(=O)N[C@H]5C(C)(C)[C@H](Oc6ccc(C#N)c(Cl)c6)C5(C)C)cn4)CC3)c2)c(-c2cn(C)c(=O)c3[nH]ccc23)c1` [Compound I-18, N-((1r, 3r)-3-(3-chloro-4-cyanophenoxy)-2,2,4,4-tetramethylcyclobutyl)-2-(4-((3-(4-(ethylsulfonamido)-2-(6-methyl-7-oxo-6,7-dihydro-1H-pyrrolo[2,3-c]pyridin-4-yl)phenoxy)benzyl)oxy)piperidin-1-yl)pyrimidine-5-carboxamide], the GI50 was below 500 nM.

In the case of `CCS(=O)(=O)Nc1ccc(Oc2cccc(N3CC4(CN(CC5CCN(c6ncc(C(=O)N[C@H]7C(C)(C)[C@H](Oc8ccc(C#N)c(Cl)c8)C7(C)C)cn6)CC5)C4)C3)c2)c(-c2cn(C)c(=O)c3[nH]ccc23)c1` [Compound I-35, N-((1r, 3r)-3-(3-chloro-4-cyanophenoxy)-2,2,4,4-tetramethylcyclobutyl)-2-(4-((6-(3-(4-(ethylsulfonamido)-2-(6-methyl-7-oxo-6,7-dihydro-1H-pyrrolo[2,3-c]pyridin-4-yl)phenoxy)phenyl)-2,6-diazaspiro[3.3]heptan-2-yl)methyl)piperidin-1-yl)pyrimidine-5-carboxamide], the GI50 is above 3000 nM.

With `CCS(=O)(=O)Nc1ccc(Oc2cccc(OC3CCC4(CC3)CCN(c3ncc(C(=O)N[C@H]5C(C)(C)[C@H](Oc6ccc(C#N)c(Cl)c6)C5(C)C)cn3)CC4)c2)c(-c2cn(C)c(=O)c3[nH]ccc23)c1` [Compound I-45], the GI50 is above 3000 nM.

Take `CCS(=O)(=O)Nc1ccc(Oc2ccc(F)c(OCCOC3CCN(c4ncc(C(=O)N[C@H]5C(C)(C)[C@H](Oc6ccc(C#N)c(Cl)c6)C5(C)C)cn4)CC3)c2F)c(-c2cn(C)c(=O)c3[nH]ccc23)c1` [Compound I-65]: the GI50 is below 500 nM.

On to `CCS(=O)(=O)Nc1ccc(Oc2cccc(OCCOC3CCN(c4ccc(C(=O)N[C@H]5C(C)(C)[C@H](Oc6ccc(C#N)c(Cl)c6)C5(C)C)cn4)CC3)c2)c(-c2cn(C)c(=O)c3[nH]ccc23)c1` [Compound I-70, N-((1r, 3r)-3-(3-chloro-4-cyanophenoxy)-2,2,4,4-tetramethylcyclobutyl)-6-(4-(2-(3-(4-(ethylsulfonamido)-2-(6-methyl-7-oxo-6,7-dihydro-1H-pyrrolo[2,3-c]pyridin-4-yl)phenoxy)phenoxy)ethoxy)piperidin-1-yl)nicotinamide], for which the GI50 is below 500 nM.

`CCS(=O)(=O)Nc1ccc(Oc2cccc(OCCOC3CCN(c4cnc(C(=O)N[C@H]5C(C)(C)[C@H](Oc6ccc(C#N)c(Cl)c6)C5(C)C)cn4)CC3)c2)c(-c2cn(C)c(=O)c3[nH]ccc23)c1` [Compound I-71, N-((1r, 3r)-3-(3-chloro-4-cyanophenoxy)-2,2,4,4-tetramethylcyclobutyl)-5-(4-(2-(3-(4-(ethylsulfonamido)-2-(6-methyl-7-oxo-6,7-dihydro-1H-pyrrolo[2,3-c]pyridin-4-yl)phenoxy)phenoxy)ethoxy)piperidin-1-yl)pyrazine-2-carboxamide] had a GI50 below 500 nM.

Compound `Cn1cc(-c2cc(C(C)(C)O)ccc2Oc2cccc(N3CC(N4CCN(c5ncc(C(=O)N[C@H]6C(C)(C)[C@H](Oc7ccc(C#N)c(Cl)c7)C6(C)C)cn5)CC4)C3)c2F)c2cc[nH]c2c1=O` [Compound I-92, N-((1r, 3r)-3-(3-chloro-4-cyanophenoxy)-2,2,4,4-tetramethylcyclobutyl)-2-(4-(1-(2-fluoro-3-(4-(2-hydroxypropan-2-yl)-2-(6-methyl-7-oxo-6,7-dihydro-1H-pyrrolo[2,3-c]pyridin-4-yl)phenoxy)phenyl)azetidin-3-yl)piperazin-1-yl)pyrimidine-5-carboxamide] came in with a GI50 below 500 nM.

In the case of `CCS(=O)(=O)Nc1ccc(Oc2cccc(OC3CC(C4CCN(c5ncc(C(=O)N[C@H]6C(C)(C)[C@H](Oc7ccc(C#N)c(Cl)c7)C6(C)C)cn5)CC4)C3)c2)c(-c2cn(C)c(=O)c3[nH]ccc23)c1` (stereo partly shown) [Compound I-104], the GI50 is above 3000 nM.

Compound `CCS(=O)(=O)Nc1ccc(Oc2ccc(OCC3CCN(c4ncc(C(=O)N[C@H]5C(C)(C)[C@H](Oc6ccc(C#N)c(Cl)c6)C5(C)C)cn4)CC3)cc2)c(-c2cn(C)c(=O)c3[nH]ccc23)c1` [Compound I-138] yielded a GI50 below 500 nM.

Turning to `Cn1cc(-c2cc(C(C)(C)O)ccc2Oc2cccc(N3CC(OC4CCN(c5ncc(C(=O)N[C@H]6C(C)(C)[C@H](Oc7ccc(C#N)c(Cl)c7)C6(C)C)cn5)CC4)C3)c2F)c2cc[nH]c2c1=O` [Compound I-190], the GI50 was below 500 nM.

On to `Cc1ccc(CCCOC2CCN(c3ncc(C(=O)N[C@H]4C(C)(C)[C@H](Oc5ccc(C#N)c(Cl)c5)C4(C)C)cn3)CC2)c(C)c1Oc1ccc(C(C)(C)O)cc1-c1cn(C)c(=O)c2[nH]ccc12` [Compound I-195], for which the GI50 was above 3000 nM.

`Cn1cc(-c2cc(C(C)(C)O)ccc2Oc2cccc(N3CC(CC4CCN(c5ncc(C(=O)N[C@H]6C(C)(C)[C@H](Oc7ccc(C#N)c(Cl)c7)C6(C)C)cn5)CC4)C3)c2F)c2cc[nH]c2c1=O` [Compound I-196] returned a GI50 above 3000 nM.

As to `CN(c1ccc(Oc2ccc(C(C)(C)O)cc2-c2cn(C)c(=O)c3[nH]ccc23)cc1)C1CCN(c2ncc(C(=O)N[C@H]3C(C)(C)[C@H](Oc4ccc(C#N)c(Cl)c4)C3(C)C)cn2)CC1` [Compound I-197], the GI50 was below 500 nM.

For `Cn1cc(-c2cc(C(C)(C)O)ccc2Oc2ccc(CC3CCN(c4ncc(C(=O)N[C@H]5C(C)(C)[C@H](Oc6ccc(C#N)c(Cl)c6)C5(C)C)cn4)CC3)cc2)c2cc[nH]c2c1=O` [Compound I-201], the 50% growth inhibitory concentration (GI50) is 500 to 1500 nM.

Compound `Cn1cc(-c2cc(C(C)(C)O)ccc2Oc2ccc(OCC3CCN(c4ncc(C(=O)N[C@H]5C(C)(C)[C@H](Oc6ccc(C#N)c(Cl)c6)C5(C)C)cn4)CC3)cc2)c2cc[nH]c2c1=O` [Compound I-202] gave a GI50 of 500 to 1500 nM.

The compound `Cn1cc(-c2cc(C(C)(C)O)ccc2Oc2ccc(CCC3CCN(c4ncc(C(=O)N[C@H]5C(C)(C)[C@H](Oc6ccc(C#N)c(Cl)c6)C5(C)C)cn4)CC3)cc2)c2cc[nH]c2c1=O` [Compound I-203] showed a GI50 above 3000 nM.

`Cn1cc(-c2cc(C(C)(C)O)ccc2Oc2ccc(OCCN3CCN(c4ncc(C(=O)N[C@H]5C(C)(C)[C@H](Oc6ccc(C#N)c(Cl)c6)C5(C)C)cn4)CC3)cc2)c2cc[nH]c2c1=O` [Compound I-204]: the GI50 lay within 500 to 1500 nM.

As to `CN(C1CCN(c2ncc(C(=O)N[C@H]3C(C)(C)[C@H](Oc4ccc(C#N)c(Cl)c4)C3(C)C)cn2)CC1)C1CN(c2ccc(Oc3ccc(C(C)(C)O)cc3-c3cn(C)c(=O)c4[nH]ccc34)cc2)C1` [Compound I-208], the GI50 is below 500 nM.

Compound `Cn1cc(-c2cc(C(C)(C)O)ccc2Oc2ccc(N3CC(OC4CCN(c5ncc(C(=O)N[C@H]6C(C)(C)[C@H](Oc7ccc(C#N)c(Cl)c7)C6(C)C)cn5)CC4)C3)cc2)c2cc[nH]c2c1=O` [Compound I-219] registered a GI50 above 3000 nM.

In the case of `CCS(=O)(=O)c1ccc(Oc2ccc(OCC3CCN(c4ncc5c(n4)CN([C@H]4C(C)(C)[C@H](Cc6ccc(C#N)c(Cl)c6)C4(C)C)C5=O)CC3)cc2)c(-c2cn(C)c(=O)c3[nH]ccc23)c1` [Compound I-220], the GI50 was below 500 nM.

Regarding `CC(C)N(C1CCN(c2ncc(C(=O)N[C@H]3C(C)(C)[C@H](Oc4ccc(C#N)c(Cl)c4)C3(C)C)cn2)CC1)C1CN(c2cccc(Oc3ccc(C(C)(C)O)cc3-c3cn(C)c(=O)c4[nH]ccc34)c2F)C1` [Compound I-221], the GI50 fell in the range of 1500 to 3000 nM.
